Tests used:
[1] = tested on: human neutrophilic leukocytes; test: Inhibition of superoxide radical (O2-) generation in FMLP-stimulated human neutrophilic leukocytes (ferricytochrome C method); assay type: cell-based; details: Homo sapiens, Leukocyte
Text: (1) Activity for inhibiting the generation of superoxide radical (O2^−) in human neutrophilic leukocytes
That is, a whole blood obtained from a healthy adult and treated by anticoagulation method was subjected to a dextranhypotonic treatment to obtain leukocyte cells. The leukocyte cells were then subjected to a density gradient ultracentrifugation by Ficoll-Paque to obtain a neutrophilic leukocyte fraction.
O2^− generation was examined by the ferricytochrome C method in accordance with the method of B. N. Cronstein et al. [Journal of Experimental Medicine, vol. […] Each test compound was dissolved in dimethyl sulfoxide (DMSO); the solution was added to neutrophilic leukocytes before the addition of FMLP; then, the neutrophilic leukocytes were pre-incubated at 37° C.

heart muscle = test: Inhibition of heart muscle necrosis in rat caused by clogging of the coronary artery and subsequent blood reperfusion (tissue CPK); assay type: in vivo; details: male SD rats; 6 mg/kg intravenously 5 minutes before ligature; ischemic area 2 hours after reperfusion; p < 0.05 vs control
Procedure: 1 (4) Activity for inhibiting the heart muscle necrosis in rat caused by clogging of the coronary artery and subsequent blood reperfusion
Male rats of SD strain (7-10 week old, 250-350 g) were used in this test. The activity of creatine phosphokinase (CPK) in tissue was used as an indication of heart muscle necrosis.
A test compound was dissolved in a small amount of 1N aqueous NaOH solution, then diluted with a physiological saline solution, and administered at a dose of 1 ml/kg of body weight. Each rat was anesthetized with pentobarbital and thoracotomized under artifical respiration; the descending branch before left coronary artery was ligated with a piece of silk string for 12 minutes; then, the blood was reperfused. Thereafter, the thoracotomized chest was closed and the rat was waken from anesthesia. 2 hours after reperfusion, the heart was enucleated under anesthesia; only the ischemic area was homogenized; and the activity of CPK contained therein was measured. The test compound was intravenously administered at a dose of 6 mg/kg 5 mintues before ligature of the coronary artery.
The results on the NaOH/physiological saline solution-administered group as a control and the compound-administered group are shown in Table 19.

For `CCOc1ccc(-c2nc(-c3ccc(O)c(C(=O)O)c3)cs2)cc1OCC` [compound 62, 4-(3-Carboxy-4-hydroxyphenyl)-2-(3,4-diethoxy-phenyl)thiazole], the IC50 ([1]; Table 16, comparative test present compounds vs prior art compounds, NE = not effective) was 10 nM, the IC50 ([1]; pH 7.4, Table 15, O2- generation, 3x10^-7 M FMLP, cytochalasin B, 37° C., pH 7.4) was 10 nM and the “Activity of creatine phosphokinase in tissue, Mean ± S.E.” value (heart muscle) was 19.53 ± 1.56 U/mg of protein.
